Calls of active or inactive are those of the source. No cut-off for these calls is given here.
Assays:
[1] = Selectivity index, ratio of IC50 for cytotoxicity against rat L6 cells to IC50 for antiprotozoal activity against chloroquine resistant Plasmodium falciparum K1 infected in human erythrocytes; assay type: toxicity, cell-based; conditions: read-out: Ratio IC50
Plasmodium falciparum = test: Antiprotozoal activity against chloroquine resistant Plasmodium falciparum K1 infected in human erythrocytes assessed as parasite growth inhibition incubated for 48 hrs by [3H]-hypoxanthine incorporation assay based Betaplate liquid scintillation counter method; assay type: functional, organism-based; conditions: K1, Erythrocyte
[2] = Selectivity index, ratio of IC50 for cytotoxicity against rat L6 cells to IC50 for antiprotozoal activity against long slender blood stream form Trypanosoma brucei rhodesiense STIB900; assay type: toxicity, cell-based; conditions: read-out: Ratio IC50
[3] = Cytotoxicity against rat L6 cells assessed as reduction in cell viability incubated for 70 hrs by Alamar blue based microplate fluorescence assay; assay type: toxicity
AT rich DNA [4] = test: Binding affinity to double stranded [poly(dA-dT)2] DNA (unknown origin) minor groove assessed as increase in positive induced CD signal in 360 to 400 nanometer absorption range incubated for 10 mins by circular dichroism spectroscopy; assay type: nucleic-acid assay
[5] = tested on: Trypanosoma brucei rhodesiense; test: Antiprotozoal activity against long slender blood stream form Trypanosoma brucei rhodesiense STIB900 assessed as parasite growth inhibition incubated for 70 hrs by resazurin based microplate fluorometer analysis; assay type: functional, organism-based; conditions: STIB900, 70 h
[6] = tested on: Trypanosoma brucei rhodesiense; test: In vivo antiprotozoal activity against acute hemolymphatic stage Trypanosoma brucei rhodesiense STIB900 infected in NMRI mouse assessed as reduction of parasitaemia at 5 mg/kg, ip for 4 days consecutive and measured upto 60 days relative to control; assay type: functional
AT rich DNA [7] = tested on: AT rich DNA
Description: Binding affinity to double stranded [poly(dA-dT)2] DNA (unknown origin) minor groove assessed as increase in melting temperature by spectrophotometer analysis

[8] = tested on: Trypanosoma brucei rhodesiense; test: In vivo antiprotozoal activity against acute hemolymphatic stage Trypanosoma brucei rhodesiense STIB900 infected in NMRI mouse assessed as reduction of parasitaemia at 10 mg/kg, ip for 4 days consecutive and measured upto 60 days relative to control; assay type: functional; set-up: scale not given: the % may be the effect or the level left; conditions: time 4 day

Compound | selectivity ratio [1] | IC50 (Plasmodium falciparum) [nM] | selectivity ratio [2] | IC50 at 70 h [3] [nM] | Activity (AT rich DNA [4]) | IC50 [5] [nM] | Activity ([6]; time 4.0 day) | ΔTm (AT rich DNA [7]) [°C] | Activity [8] [%] | Activity ([6]; time 4 day) [%]
N=C(N)c1ccc(-c2ccc(-c3cc4ccc(C(=N)N)cc4[nH]3)s2)cc1 | 1720 | 7.2 | 1030 | 12400 | Active | 12 | inactive | > 30 | – | –
N=C(N)c1ccc(-c2ccc(-c3nc4ccc(C(=N)N)cc4[nH]3)s2)cc1 | 1900 | 11.8 | 829 | 22400 | – | 27 | – | > 30 | 75 | –
N=C(N)c1ccc(-c2ccc(-c3cc4ccc(C(=N)N)cc4[nH]3)o2)cc1 | 2800 | 4.6 | 1080 | 12900 | Active | 12 | inactive | > 30 | – | –
N=C(N)c1ccc(-c2ccc(-c3nc4cc(C(=N)N)ccc4[nH]3)o2)cc1 | 105 | 95.8 | 82 | 10100 | – | 122 | – | 25 | – | 25
N=C(N)c1ccc2cc(-c3ccc(-c4ccc(C(=N)N)nc4)o3)[nH]c2c1 | 3940 | 3.6 | 2030 | 14200 | – | 7 | inactive | 28 | – | –
N=C(N)c1ccc(-c2ccc(-c3cc4cc(C(=N)N)ccc4[nH]3)[se]2)cc1 | 5510 | 3.9 | 7170 | 21500 | Active | 3 | – | > 30 | – | 50
N=C(N)c1ccc(-c2ccc(-c3cc4cc(C(=N)N)ccc4[nH]3)o2)cc1 | 5070 | 2.8 | 7100 | 14200 | Active | 2 | – | 29 | – | 75
N=C(N)c1ccc(-c2ccc(-c3cc4cc(C(=N)N)ccc4[nH]3)s2)cc1 | 6070 | 2.8 | 2830 | 17000 | – | 6 | – | 29 | – | 50
N=C(N)c1ccc(-c2ccc(-c3ccc(C(=N)N)cc3)o2)cc1 [FURAMIDINE] | – | – | – | – | – | – | – | 25 | – | 25
N=C(N)c1ccc(-c2ccc(-c3cc4ccc(C(=N)N)cc4[nH]3)s2)nc1 | – | – | 966 | 14500 | – | 15 | inactive | 29 | – | –
N=C(N)c1ccc(-c2ccc(-c3cc4ccc(C(=N)N)cc4[nH]3)o2)nc1 | 5440 | 6.4 | 2050 | 34800 | Active | 17 | – | 28 | – | 75
COc1cc(C(=N)N)ccc1-c1ccc(-c2cc3ccc(C(=N)N)cc3[nH]2)o1 | – | – | 283 | 11000 | – | 39 | – | 27 | – | –
N=C(N)c1ccc(-c2ccc(-c3cc4cc(C(=N)N)ccc4[nH]3)o2)nc1 | 8690 | 5.8 | 8400 | 50400 | – | 6 | – | 27 | – | 75
Cc1cc(C(=N)N)ccc1-c1ccc(-c2cc3ccc(C(=N)N)cc3[nH]2)o1 | – | – | 850 | 5100 | – | 6 | inactive | > 30 | – | –

Reference: ChEMBL document CHEMBL5360550 (Eur J Med Chem, 2023)
